Results on eight compounds are retold here after patent publication US20100227935A1, “CLASS OF TERPENE-DERIVED COMPOUNDS HAVING AN ANTIBIOTIC ACTIVITY, COMPOSITIONS CONTAINING THE SAME AND USES THEREOF” (Centre National De La Recherche Scientifique, priority 2006, published 2010).

Holding throughout (type): cell-based
The subject of test [1] is Staphylococcus aureus H18. Kind of test: MIC / antibiotic susceptibility.
For the next test, the system named is Staphylococcus aureus H3. Kind of test: MIC / antibiotic susceptibility.
For another test, the system named is Staphylococcus aureus H1. Kind of test: MIC / antibiotic susceptibility.
A further test deals with Staphylococcus aureus H7. Nature of the test: MIC / antibiotic susceptibility.
The subject of a further test is Staphylococcus aureus H9. Nature of the test: MIC / antibiotic susceptibility.
The subject of another test is Staphylococcus aureus H4. Nature of the test: MIC / antibiotic susceptibility.
Test [2] relates to Staphylococcus aureus H16.
Further: key: R: strain resistant to antibiotic concerned; S: strain sensitive to antibiotic concerned; L strain with intermediate resistance to antibiotic concerned.

Regarding `NCC[C@H](O)C(=O)N[C@@H]1C[C@H](N)[C@@H](O[C@H]2O[C@H](CN)[C@@H](O)[C@H](O)[C@H]2O)[C@H](O)[C@H]1O[C@H]1O[C@H](CO)[C@@H](O)[C@H](N)[C@H]1O` [Amikacin], the “Susceptibility of strain to antibiotic” value in test [1] is “R”; with Staphylococcus aureus H3, “S”; with Staphylococcus aureus H1, “S”; with Staphylococcus aureus H7 it was “S”; in the test with Staphylococcus aureus H9 it was “S”; in the test with Staphylococcus aureus H4, “R”. Further, in test [2], the “Susceptibility of strain to antibiotic” value was “R”.

Regarding `CC1(C)S[C@@H]2[C@H](NC(=O)[C@H](N)c3ccc(O)cc3)C(=O)N2[C@H]1C(=O)O` [Amoxicillin], the “Susceptibility of strain to antibiotic” value (in test [1]; in the test on Staphylococcus aureus H3; with Staphylococcus aureus H1; with Staphylococcus aureus H7; in the test with Staphylococcus aureus H9; in the test on Staphylococcus aureus H4) was “R” each time. Further, in test [2], the “Susceptibility of strain to antibiotic” value is listed as “R”.

Consider `Cc1nnc(SCC2=C(C(=O)O)N3C(=O)[C@@H](NC(=O)Cn4cnnn4)[C@H]3SC2)s1` [Cefazoline], for which the “Susceptibility of strain to antibiotic” value in test [1] is “R”; in the test with Staphylococcus aureus H3 it was “S”; in the test with Staphylococcus aureus H1, “S”; in the test with Staphylococcus aureus H7, “S”; in the test with Staphylococcus aureus H9, “S”; in the test on Staphylococcus aureus H4, “R”. Further, the “Susceptibility of strain to antibiotic” value in test [2] was “R”.

For `C[C@H]1c2cccc(O)c2C(O)=C2C(=O)[C@]3(O)C(O)=C(C(N)=O)C(=O)[C@@H](N(C)C)[C@@H]3[C@@H](O)[C@@H]21` [Doxycyclin], the “Susceptibility of strain to antibiotic” value (in test [1]; in the test with Staphylococcus aureus H3; in the test with Staphylococcus aureus H1; in the test with Staphylococcus aureus H7; in the test on Staphylococcus aureus H9; in the test on Staphylococcus aureus H4) was “S” in each case.

Take `CC[C@H]1OC(=O)[C@H](C)[C@@H](O[C@H]2C[C@@](C)(OC)[C@@H](O)[C@H](C)O2)[C@H](C)[C@@H](O[C@@H]2O[C@H](C)C[C@H](N(C)C)[C@H]2O)[C@](C)(O)C[C@@H](C)C(=O)[C@H](C)[C@@H](O)[C@]1(C)O` [Erythromycin]: the “Susceptibility of strain to antibiotic” value is listed as “R” in test [1]; “R” in the test on Staphylococcus aureus H3; “S” in the test on Staphylococcus aureus H1; “R” in the test with Staphylococcus aureus H7; “R” with Staphylococcus aureus H9; “S” with Staphylococcus aureus H4. In addition, the “Susceptibility of strain to antibiotic” value in test [2] is on record as “R”.

Take `CN(C)[C@@H]1C(O)=C(C(N)=O)C(=O)[C@@]2(O)C(O)=C3C(=O)c4c(O)cccc4[C@@](C)(O)[C@H]3C[C@@H]12` [Tetracycline]: the “Susceptibility of strain to antibiotic” value in the test on Staphylococcus aureus H3 is reported as “S”; with Staphylococcus aureus H1 it was “S”; with Staphylococcus aureus H4 it was “S”; in test [2], “R”.

For the compound Pristinamycin, the “Susceptibility of strain to antibiotic” value (in test [1]; in the test on Staphylococcus aureus H3; with Staphylococcus aureus H1; with Staphylococcus aureus H7; in the test on Staphylococcus aureus H9; in the test with Staphylococcus aureus H4) was “S” in each case.

As for Teicoplanin, the “Susceptibility of strain to antibiotic” value is listed as “R” in test [1]; “S” in the test with Staphylococcus aureus H3; “S” in the test on Staphylococcus aureus H1; “S” in the test on Staphylococcus aureus H7; “S” in the test with Staphylococcus aureus H9; “S” in the test with Staphylococcus aureus H4.
